Measured values reported in patent US20250368987A1, “COMPOSITION COMPRISING TAF10 INHIBITOR FOR PREVENTING OR TREATING COLORECTAL CANCER” (KOREA ADVANCED INSTITUTE OF SCIENCE AND TECHNOLOGY, priority 2021, published 2025).

Legend:
cancer cells = assay: Combined TAF10 inhibition and oxaliplatin: confluence, PI staining, FACS cell death; format: cell-based
Experimental: (§1) Infected cells were inoculated in a 96-well plate (6×10^3 cell/well) to measure the cell growth and the cell growth was recorded every 3 hours using IncuCyte ZOOM (Essen Bioscience), and cell confluence was analyzed using IncuCyte ZOOM 2016A software.
Meanwhile, an increase in the cancer stemness of cancer cells may also cause increased resistance of cancer cells to anticancer agents. Therefore, a colorectal cancer animal model in which TAF10 was inhibited or not was treated with the anticancer agent, oxaliplatin (1 μM concentration) and its therapeutic effect was confirmed.
In addition, as a result of staining cells by treating a PI solution capable of confirming cell death, it was confirmed that proliferation was suppressed when TAF10 was inhibited, and that the number of dying cells increased when treated with oxaliplatin along with TAF10 inhibition (FIG. 9B).
In addition, the degree of cell death through PI and 7-AAD was confirmed through FACS. In this regard, Q1 means NECROSIS, Q2 means LATE APOPTOSIS, Q3 means EARLY APOPTOSIS, and Q4 means live cells. The degree of cell death may be determined by increasing the ratio of Q2. As a result, it was confirmed that the ratio of Q2 increased when TAF10 was inhibited and oxaliplatin was combined, so that it was confirmed that cell death increased (FIG. 9C).

HCT116 [1] = assay: Combined TAF10 inhibition and oxaliplatin in colorectal cancer-inducing animal model; format: in vivo, Nude mice
Experimental: First, TAF10 WT (wild type) and TAF10 knockdown (KD) cells were prepared in the same manner as in Experimental Example 1-3 using shRNA consisting of a base sequence represented by SEQ ID NO: 7 in HCT116, which was a colorectal cancer cell line. 2×10^6 of TAF10 WT or TAF10 KD was prepared and subcutaneously injected into Nude mice deficient of an immune system. Tumor occurrence was confirmed every two days, and its size was measured. In addition, in order to confirm the effect of combined treatment with anticancer agents, the colorectal cancer-inducing animal model prepared in the same manner as before was divided into four experimental groups, and after 2 weeks (14 days) when the tumor had formed to some extent, a control group was administered with PBS and in the experimental group, oxaliplatin was injected into the abdominal cavity at a concentration of 10 mg/kg every two days.
In addition, the combined effect in vivo was confirmed using a colorectal cancer-inducing animal model prepared by subcutaneously injecting HCT116 in which TAF10 was inhibited or HCT116 in which TAF10 was not inhibited. From two weeks after the tumor in each experimental group was formed, WT and KD were divided into two experimental groups. […]

HCT116 [2] = assay: Cell cycle by FACS (PI staining); format: cell-based; conditions: HCT116, FIG. 5B
Experimental: The cells were treated with trypsin-EDTA, separated into single cells, washed twice with PBS, and fixed with 70% ethanol for 1 hour at −20° C. After washing again with PBS twice, the cells were treated with 20 μg/ml of RNase A, and flow cytometry analysis was performed through 20 μg/ml of propidium iodide (PI) staining.
(§2) Through Example, it was confirmed that the TAF10 inhibition suppressed the growth of HCT116, a colorectal cancer cell line. As a result, the expression genes and proteins related with the growth rate and cell growth and the expression of genes and proteins related to cell cycle arrest were confirmed according to TAF10 inhibition (using siRNA) in HT29 and CACO2 colorectal cancer cell lines, which were other colorectal cancer cell lines. In addition, the cell cycle was confirmed according to TAF10 inhibition, and whether there was an increase in senescent cells was confirmed. The senescent cells were confirmed by staining the senescent cells using a senescence b-galactosidase staining kit (Cell signaling).

HT29 = assay: Growth rate of colorectal cancer cell line upon TAF10 inhibition (siRNA); format: cell-based; conditions: FIG. 4A
Experimental: (§3) Transfection reagents RNAiMAX (Thermo Fisher Scientific) and siRNA (BIONEER Corporation, Daejeon, South Korea) were mixed in an Opti-mem medium at a final concentration of 30 nM. Target cells were cultured with the mixture, and then cells were harvested for RNA extraction after 72 hours of siRNA transfection.
as §1, §2

CACO2 = assay: as above; format: cell-based; conditions: FIG. 4A
Experimental: as §3, §1, §2

HCT116 [3] = assay: Senescence b-galactosidase staining; format: cell-based; conditions: HCT116, FIG. 5C
HCT116 [4] = assay: Western blot protein expression upon TAF10 inhibition; format: cell-based
Experimental: Cellular proteins were dissolved and extracted on ice in a lysis buffer (20 mM HEPES (pH 7.2), 150 mM NaCl, 0.5% Triton X-100, 10% glycerol, 0.1% SDS) containing 0.1% protease inhibitor and phosphatase inhibitor cocktail (Thermo-scientific, USA). The proteins were separated through protein electrophoresis (10% gel) and transferred to a PVDF membrane. For Western blot, an anti-TAF10 (ab263967) antibody was purchased from Abcam, anti-AKT1 (2938S), anti-phosphoAkt (2965S), anti-phospho B-raf (#2696), anti-MEK1/2. (#9122), anti-phosphoERK1/2 (#9106), anti-STAT3 (#9139), and anti-phosphoSTAT3 (#9131) antibodies were purchased from Cell signaling, and anti-phospho m-TOR (sc-293133), anti-phosphoMEK1/2 (sc-81503), anti-CyclinE1 (sc-247), anti-CDK2 (sc-6248), and anti-VEGF (sc7269) antibodies were purchased and used from Santacruz. A rabbit polyclonal anti-GAPDH antibody was provided and used from the Korea Research Institute of Bioscience and Biotechnology. The expression of each protein band was confirmed using an enhanced chemiluminescence (ECL) solution.
Through Example, it was confirmed that the TAF10 inhibition suppressed the growth of HCT116, a colorectal cancer cell line. […]

HCT116 [5] = assay: Cell growth (IncuCyte confluence) after siRNA transfection; format: cell-based; conditions: HCT116, siRNA 30 nM, FIG. 2A
Experimental: as §3
The used siRNAs siNPM1, siTAF10, and siZNHIT1 were as follows. • (SEQ ID NO: 1) siTAF10-SENSE: GUGAAGAAGCCGCACUACU • (SEQ ID NO: 2) siTAF10-ANTISENSE: AGUAGUGCGGCUUCUUCAC • (SEQ ID NO: 3) siNPM1-SENSE: […] GA • (SEQ ID NO: 4) siNPM1-ANTISENSE: […] UC • (SEQ ID NO: 5) siZNHIT1-SENSE: GAGACUGCCUCAGUUUGAU • (SEQ ID NO: 6) siZNHIT1-ANTISENSE: AUCAAACUGAGGCAGUCUC 1-3. Transfection and Transduction of shRNA
as §1
Based on those confirmed in Example 1, NPM1, TAF, or ZNHIT1 of the colorectal cancer cell line HCT116 was inhibited as in Experimental Example 1-2, and its growth ability was confirmed. […] In addition, as a result of confirming overall survival probability when TAF10 is inhibited in The Cancer Genome Atlas (TCGA) as a large-scale cancer database, it was confirmed that the survival probability was increased (see FIG. 2B). […]

HCT116 [6] = assay: qRT-PCR gene expression upon TAF10 inhibition; format: cell-based

| Molecule | effect of TAF10 inhibition on the anticancer effect of oxaliplatin (cancer cells; FIG. 9) | cancer confluence (cancer cells; TAF10 inhibited and oxaliplatin 1 μM, FIG. 9A) | ratio of Q2 (LATE APOPTOSIS), FACS PI and 7-AAD (cancer cells; TAF10 inhibited and oxaliplatin combined, FIG. 9C) | number of dying cells (PI staining) (cancer cells; oxaliplatin along with TAF10 inhibition, FIG. 9B) | tumor size (HCT116 [1]; TAF10 KD HCT116, oxaliplatin 10 mg/kg once every two days, after 44 days, FIG. 9E) | tumor size (tumor volume over time) (HCT116 [1]; TAF10 inhibited and oxaliplatin, FIGS. 9D and 9E) | cell cycle (HCT116 [2]) | growth rate (HT29) | growth rate (CACO2) | number of senescent cells (HCT116 [3]) | expression of proteins Cyclin E1 and CDK2 related to cell cycle arrest (HCT116 [4]; FIG. 5A) | expression of proteins tAkt1, pAkt, pGSK-3β, m-TOR, pB-raf, tMEK1/2, pMEK1/2, and pERK1/2 (HCT116 [4]; HCT116, FIG. 4B) | cell proliferation (HCT116 [5]) | expression of genes TP53, CDKN1A, and CXCL8 related to cell cycle arrest (HCT116 [6]; FIG. 5A) | expression of genes MKI167, PCNA, and MCM7 related to cell growth (HCT116 [6]; HCT116, FIG. 4B) |
| --- | --- | --- | --- | --- | --- | --- | --- | --- | --- | --- | --- | --- | --- | --- | --- |
| O=C1[O][Pt]2([NH][C@@H]3CCCC[C@H]3[NH]2)[O]C1=O [oxaliplatin] | synergistic effect | significantly reduced | increased | increased | significantly reduced | significantly reduced |  |  |  |  |  |  |  |  |  |
| siTAF10: siRNA targeting TAF10; sense GUGAAGAAGCCGCACUACU (SEQ ID NO: 1), antisense AGUAGUGCGGCUUCUUCAC (SEQ ID NO: 2) (listed as RNA, chemistry not given here) |  |  |  |  |  |  | arrested | reduced | reduced | increased | increased | reduced | significantly reduced | increased | reduced |
